Laboratory results: patent publication US20260125388A1 (priority 2022, published 2026)
Converted amounts (≈) assume the structure as drawn. Where two headings read alike, the source gives them in different places.

Legend:
[1] = Aqueous solubility, shake flask in PBS buffer; assay type: physicochemical; details: for Aqueous solubility: pH 7.2
Method: 5-50 mg of compound was added to 500 μL of PBS buffer at pH 7.4. The pH was adjusted if necessary, using a 1M NaOH solution. The solutions were vortexed for 10 s, sonicated for 2 min and agitated with a horizontal shaker in a closed vial for 24 h. The mixtures were transferred to an Eppendorf tube and centrifuged for 5 min at 16000×g followed by filtration through […] cellulose acetate spin X centrifuge filter (Costar). 200 μL of filtrate was transferred to a new Eppendorf tube and 200 μL of methanol was added and then subsequent dilution was made in 50:50 methanol/PBS buffer water if necessary. After mixing, 50 μL were transferred into a 384 well plate (Coring UV star, 781801) for UV detection at 250-600 nm (Tecan M1000). The assay was carried out with three independent samples of each compound. The concentration of each solution was determined with a calibration curve in 50:50 methanol/PBS buffer water. Absorbance of corresponding methanol PBS blank were recorded and subtracted from the absorbance of calibration curve solutions and from the samples.

[2] = test system: HEK293 cells; assay: Cytotoxicity, CellTiter-Glo cell viability assay; assay type: cell-based, human; details: for Cytotoxicity LD50: HEK293 cells, CellTiter-Glo, Table 3; for LD50 HEK293: human kidney cells, Table 2
Method: Compounds with increased cytotoxicity can be identified using an in vitro cytotoxicity assay. Therefore, human embryonic kidney 293T (HEK293T) cell lines were purchased (ATCC) and cultured in 75 cm2 flasks (CellStar). Cells were grown in DMEM/High Glucose (Hyclone, #SH3024301) media to which non-essential amino acids (Hyclone, #SH30238.01), 10 mM HEPES (Hyclone, #SH302237.01), 5×106 units of penicillin and streptomycin (Hyclone, #SV30010), and 10% of heat inactivated fetal bovine serum (Gibco, #10082147) were added. Cells were harvested using 0.05% Trypsin (Hyclone, #SH3023601). The cell viability assay was evaluated using CellTiter-Glo™ Luminescent Cell Viability Assay Kit (Promega, Madison, WI), which contains luciferase and all its substrate except ATP. The controls for the cytotoxicity assay used were (E)-10-(bromotriphenylphosphoranyl)decyl 4-(4-(tert-butyl)phenyl)-4-oxobut-2-enoate (400 μM in DMSO, positive control) and DMSO (negative control). All luminescence readings were performed on a Tecan Infinite M1000 plate reader. Small volume transfers were performed on the Tecan Freedom EVO liquid handling system with a 100 nL pin tool transfer (V&P Scientific). Serial dilutions were done in 96-well polypropylene plates (Coming, #3365) and assays were conducted in 384-well white optical bottom plates. The assays were carried out in quadruplet in three independent runs. The data were normalized to the controls and if possible analyzed by nonlinear regression (GraphPad Prism).

[3] = parallel artificial membrane permeation assay at pH 7.4
Method: The artificial membrane was prepared by carefully pipetting 15 μL of the 5% (v/v) hexadecane in hexane solution to each of the wells of the donor plate. The plate was placed into a fume hood for 1 h to ensure complete evaporation of the hexane. After the hexane had evaporated, 300 μL of PBS with 5% (v/v) DMSO was added to each of the wells of the acceptor plate. The hexadecane treated donor plate was then placed on top of the acceptor plate taking care that the underside of the membrane is completely in contact with the solution in each of the acceptor wells. […] The lid was placed on the plates and the entire plate sandwich was placed into a closed humid environment. The container was then placed on a reciprocal shaker for agitation at about 100 rpm. The time at the beginning of the incubation was recorded, as this is a thermodynamic-based assay. The incubation was then allowed to continue for 18 h. The donor plate was removed and 50 μL of the acceptor solution was transferred to the UV plate. Drug solutions at the theoretical equilibrium concentration (100 μM) was also prepared and transferred to the UV plate. The absorbance of the solutions in the UV plate was then scanned from 250-600 nm with 1 nm steps and a 5 nm bandwidth. Log Pe was calculated as follows (Equation 1).

[4] = test system: GABAA receptor; assay: GABAA receptor binding, competition assay with [3H]-flunitrazepam and rat brain membranes; details: for GABAAR binding, % inhibition at 10 μM: Table 3
Method: GABAA receptor binding: Rat brain membranes were prepared from frozen tissue that was thawed on ice and homogenized on ice in 10 volumes of cold lysis buffer (50 mM Tris HCl, pH 7.4, containing protease inhibitor cocktail from Roche) using a Polytron homogenizer (6 pulses and 10 seconds per pulse). The homogenate was centrifuged at 1,000×g for 10 min at 4° C. to obtain the supernatant. The supernatant was then centrifuged at 40,000×g for 20 min, and the resulting supernatant decanted and replaced with the same ice-cold lysis buffer. Two or three additional rounds of homogenization-centrifugation were performed to ensure thorough homogenization and also to wash out endogenous ligands. The final pellet was resuspended in the same buffer and homogenized one last time. […] Total binding and nonspecific binding were determined with reference compound clonazepam. […] Scintillation cocktail is then melted onto the microwave-dried filters on a hot plate and radioactivity counted in a Microbeta counter. The data (n=6) were analyzed by nonlinear regression.

[5] = 3H-flunitrazepam, rat brain extract
[6] = read-out: GABAAR binding (IC50), value in brackets, 3H-flunitrazepam, rat brain extract, Table 3, unit inferred
[7] = [3H]-flunitrazepam, rat brain, Table 1

| Structure (SMILES) | Aqueous solubility [1] [µM] | Cytotoxicity LD50 [2] [µM] | Permeability (log Pe (cm/s)) [3] [cm/s] | GABAAR binding, % inhibition at 10 μM [4, 5] | IC50 [4, 6] [nM] | Aqueous solubility (footnote b: mM) ([1]; pH 7.2, cells marked b) | LD50 HEK293 [2] [µM] | % Inhibition at 10 μM [4, 7] [%] | solubility at 24 h ([1]; PBS buffer, aqueous buffer, thermodynamic from solid, pH 7.2, cells marked b, read-out: Aqueous solubility (footnote b: mM)) [mM] | IC50 [4, 7] [nM] |
| --- | --- | --- | --- | --- | --- | --- | --- | --- | --- | --- |
| O=C1Nc2ccc(Br)cc2C(c2ccccc2F)=NC12CC2 [Compound 2] | 321 ± 19 | >150 | −5.6 ± 0.05 | 97% | 42 | – | – | – | – | – |
| O=C1Nc2ccc(Cl)cc2C(c2ccccc2F)=NC12CC2 [Compound 6] | 39 ± 3 | >150 | −5.2 ± 0.15 | 90% | 665 | – | – | – | – | – |
| CC1(C)N=C(c2ccccc2F)c2cc(Br)ccc2NC1=O [Compound 8] | 319 ± 24 | >150 | −5.7 ± 0.01 | 70% | 1250 | – | – | – | – | – |
| CCOC(=O)c1ncn2c1C1(CC1)N=C(c1ccccc1F)c1cc(Br)ccc1-2 [Compound 9] | 141 ± 20 | >120 | −5.1 ± 0.10 | 94% | 87 | – | – | – | – | – |
| CCOC(=O)c1ncn2c1C1(CCC1)N=C(c1ccccc1F)c1cc(Br)ccc1-2 [Compound 11] | 144 ± 7 | 106 ± 9 | −5.8 ± 0.10 | 19 (n.d.) % | – | – | – | – | – | – |
| CCOC(=O)c1ncn2c1C1(CCCC1)N=C(c1ccccc1F)c1cc(Br)ccc1-2 [Compound 12] | 141 ± 19 | 96 ± 11 | −6.0 ± 0.06 | 74% | 6220 | – | – | – | – | – |
| CCOC(=O)c1ncn2c1C1(CCCCC1)N=C(c1ccccc1F)c1cc(Br)ccc1-2 [Compound 13] | 54 ± 2 | >150 | −5.6 ± 0.04 | 34 (n.d.) % | – | – | – | – | – | – |
| CCOC(=O)c1ncn2c1C(C)(C)N=C(c1ccccc1F)c1cc(Br)ccc1-2 [Compound 15] | 103 ± 5 | >150 | −6.0 ± 0.12 | 78% | 733 | – | – | – | – | – |
| C#Cc1ccc2c(c1)C(c1ccccc1F)=NC1(CC1)c1c(C(=O)O)ncn1-2 [Compound 20, 8-ethynyl-6-(2-fluorophenyl)spiro[benzo[f]imidazo[1,5-a][1,4]diazepine-4,1′-cyclopropane]-3-carboxylic acid] | – | >300 | −6.7 ± 0.12 | 55% | 59 | 40.3 ± 0.5 ^b mM | >400 | – | – | – |
| C#Cc1ccc2c(c1)C(c1ccccc1F)=NC1(CCCC1)c1c(C(=O)O)ncn1-2 [Compound 21, 8-ethynyl-6-(2-fluorophenyl)spiro[benzo[f]imidazo[1,5-a][1,4]diazepine-4,1′-cyclopentane]-3-carboxylic acid] | – | – | – | – | – | – | >400 | 0 | – | – |
| O=C(O)c1ncn2c1C1(CC1)N=C(c1ccccc1F)c1cc(C3CC3)ccc1-2 [Compound 24, 8-cyclopropyl-6-(2-fluorophenyl)spiro[benzo[f]imidazo[1,5-a][1,4]diazepine-4,1′-cyclopropane]-3-carboxylic acid] | – | >300 | −6.4 ± 0.04 | 58% | 1830 | 12.8 ± 0.1 ^b mM | >400 | – | – | – |
| O=C(O)c1ncn2c1C1(CCCC1)N=C(c1ccccc1F)c1cc(C3CC3)ccc1-2 [Compound 25, 8-cyclopropyl-6-(2-fluorophenyl)spiro[benzo[f]imidazo[1,5-a][1,4]diazepine-4,1′-cyclopentane]-3-carboxylic acid] | – | – | – | – | – | – | >400 | 31.4 | – | – |
| O=C(O)c1ncn2c1C1(CC1)N=C(c1ccccc1F)c1cc(Br)ccc1-2 [Compound 26, 8-bromo-6-(2-fluorophenyl)spiro[benzo[f]imidazo[1,5-a][1,4]diazepine-4,1′-cyclopropane]-3-carboxylic acid] | – | >300 | −6.8 ± 0.09 | 97% | 9 | – | >400 | 97.0 | 8.2 (≈ 3500 µg/mL) | 9.1 |
| O=C(O)c1ncn2c1C1(CCC1)N=C(c1ccccc1F)c1cc(Br)ccc1-2 [Compound 27, 8-bromo-6-(2-fluorophenyl)spiro[benzo[f]imidazo[1,5-a][1,4]diazepine-4,1′-cyclobutane]-3-carboxylic acid] | – | >300 | −6.6 ± 0.10 | 59% | 1830 | 58.7 ± 4.4 ^b mM | >400 | 59.4 | – | 1830 |
| O=C(O)c1ncn2c1C1(CCCC1)N=C(c1ccccc1F)c1cc(Br)ccc1-2 [Compound 28, 8-bromo-6-(2-fluorophenyl)spiro[benzo[f]imidazo[1,5-a][1,4]diazepine-4,1′-cyclopentane]-3-carboxylic acid] | – | >300 | −6.7 ± 0.04 | 2 (n.d.) % | – | 46.7 ± 0.6 ^b mM | >400 | 23.8 | – | – |
| O=C(O)c1ncn2c1C1(CCCCC1)N=C(c1ccccc1F)c1cc(Br)ccc1-2 [Compound 29, 8-bromo-6-(2-fluorophenyl)spiro[benzo[f]imidazo[1,5-a][1,4]diazepine-4,1′-cyclohexane]-3-carboxylic acid] | – | >300 | −6.6 ± 0.10 | 24 (n.d.) % | – | 46.9 ± 1.3 ^b mM | >400 | 1.9 | – | – |
| O=C(O)c1ncn2c1C1(CC1)N=C(c1ccccc1F)c1cc(Cl)ccc1-2 [Compound 30, 8-chloro-6-(2-fluorophenyl)spiro[benzo[f]imidazo[1,5-a][1,4]diazepine-4,1′-cyclopropane]-3-carboxylic acid] | – | >300 | −6.6 ± 0.03 | 18 (n.d.) % | – | 36.2 ± 0.4 ^b mM | >400 | – | – | – |
| O=C(O)c1ncn2c1C1(CCCC1)N=C(c1ccccc1F)c1cc(Cl)ccc1-2 [Compound 31, 8-chloro-6-(2-fluorophenyl)spiro[benzo[f]imidazo[1,5-a][1,4]diazepine-4,1′-cyclopentane]-3-carboxylic acid] | – | – | – | – | – | – | >400 | 47.8 | – | – |
| O=C(O)c1ncn2c1C1(CC1)N=C(c1ccccc1F)c1ccccc1-2 [Compound 32, 6-(2-fluorophenyl)spiro[benzo[f]imidazo[1,5-a][1,4]diazepine-4,1′-cyclopropane]-3-carboxylic acid] | – | >300 | −7.0 ± 0.14 | 74% | 289 | 15.1 ± 0.1 ^b mM | >400 | – | – | – |
| O=C(O)c1ncn2c1C1(CCCC1)N=C(c1ccccc1F)c1ccccc1-2 [Compound 33, 6-(2-fluorophenyl)spiro[benzo[f]imidazo[1,5-a][1,4]diazepine-4,1′-cyclopentane]-3-carboxylic acid] | – | – | – | – | – | – | >400 | 4.7 | – | – |
